Values after ≈ are worked out from the molar mass of the structure shown. Like-named read-outs stand apart in the source and are kept apart here.
Tests used:
[1] = test system: Escherichia coli strain EDL933 (EHEC); assay: Disk diffusion susceptibility test; assay type: cell-based; conditions: 5 mg per disc, 37 °C, 24 h
Candida albicans = assay: Disk diffusion susceptibility test; assay type: cell-based; conditions: for zone of inhibition at 5000 µg/disc: Candida albicans, read-out: Zone of inhibition at 5 mg per disc (mm) C. albicans
[2] = test system: Salmonella enterica serovar Typhi; assay: Disk diffusion susceptibility test; assay type: cell-based; conditions: 5 mg per disc, 37 °C, 24 h
Candida glabrata = assay: Disk diffusion susceptibility test; assay type: cell-based; conditions: for zone of inhibition at 5000 µg/disc: Nakaseomyces glabratus, read-out: Zone of inhibition at 5 mg per disc (mm) C. glabrata
HaCaT cells = assay: Cytotoxicity MTT assay; assay type: cell-based, human; conditions: Homo sapiens, HaCaT, 48 h exposure
Experimental: (§1) Biological assays on HaCaT and HeLa cell lines were conducted to gain insight into the cytotoxic effects of these derivatives on human cells, as compared with the effects observed on protozoa. Cellular viability was determined by MTT (3-(4,5-dimethylthiazol-2-yl)-2,5-diphenyltetrazolium bromide) assay. Compounds 18 and 23 were chosen considering their antiprotozoal and anticandidal effect, in addition to their COX-2 inhibitory activity. Additionally, compound 16 was considered as an unsubstituted reference.
(§2) HeLa (human cervical carcinoma) and HaCaT (immortalized human keratinocytes) cells were grown in DMEM (Invitrogen Corporation, Carlsbad, CA, USA) supplemented with 10% FBS (BioWest, Riverside, MO, USA), and maintained in standard culture conditions (37 °C, 95% humidity, and 5% CO2). Cells were allowed to grow to a density of 80% and then were harvested using sterile PBS/EDTA (pH 7.4) before starting every experiment. Cells were seeded in 96-well plates (7000 cells/well in 200 µL of DMEM). After 24 h the cells were exposed to test compounds dissolved in DMSO (J.T. Baker, Phillipsburg, NJ, USA) at different concentrations and diluted in 50 µL of DMEM, to reach 250 µL in the well. The exposure time was 48 h, and then viability was determined by MTT assay. The absorbance of formazan was determined for each well and its viability was related to the vehicle (100%). The IC50 was calculated from dose-response curve by non-linear fit using OriginPro 7.0 software (RockWare, Golden, CO, USA).

HeLa cells = assay: Cytotoxicity MTT assay; assay type: cell-based, human; conditions: Homo sapiens, 48 h exposure
Experimental: as §1, §2

Cytotoxicity MTT assay = assay type: cell-based, human; conditions: human, 10 µM, 48 h exposure
Experimental: as §1, §2

[3] = test system: Escherichia coli strain 042 (EAEC); assay: Disk diffusion susceptibility test; assay type: cell-based; conditions: 5 mg per disc, 37 °C, 24 h
[4] = test system: Giardia intestinalis isolate IMSS:0981:1; assay: In vitro antiprotozoal assay (trophozoite subculture method); assay type: cell-based; conditions: for IC50: Giardia duodenalis, trophozoites, 48 h with compound then 48 h subculture without drug, read-out: IC50 (µM) G. intestinalis
Experimental: (§3) The in vitro antiprotozoal assays against E. histolytica, G. intestinalis, and T. vaginalis of the 2-phenyl-2H-indazole and 2,3-diphenyl-2H-indazole derivatives were carried out following the method previously described. Metronidazole (MTZ) and albendazole (ABZ) were used as reference drugs. […] Similarly, compound 7, having a phenyl at position 2, has good activity against the three protozoa, ranking third in activity for T. vaginalis and forth against G. intestinalis and E. histolytica. […] These derivatives had groups H, COOCH3, Cl, and SO2CH3 at positions 2 and 3, substituents that induced the best response in 2-phenyl-2H-indazole derivatives. In addition, carboxylic acids 20 and 25 were of interest for comparative purposes with ester derivatives.
(§4) Trichomonas vaginalis strain GT3, Giardia intestinalis isolate IMSS:0981:1, and Entamoeba histolytica strain HM1-IMSS were used. Trophozoites of G. intestinalis were maintained in a TYI-S-33 medium supplemented with 10% calf serum and bovine bile. E. histolytica and T. vaginalis trophozoites were maintained in TYI-S-33 medium supplemented with 10% bovine serum. Briefly, 5 × 10^4 trophozoites of G. intestinalis or T. vaginalis, or 6 × 10^3 trophozoites of E. histolytica were incubated for 48 h at 37 °C with different concentrations of the compound to be tested, each added as solutions in DMSO. As a negative control, parasite cultures received an equivalent amount of DMSO only, while albendazole and metronidazole were included as positive controls. At the end of the treatment period, the cells were washed and subcultured for another 48 h in a fresh medium to which no drug was added. […] Experiments were carried out in triplicate and repeated at least twice.

[5] = test system: Trichomonas vaginalis strain GT3; assay: as above; assay type: cell-based; conditions: for IC50: Trichomonas vaginalis, GT3, trophozoites, 48 h with compound then 48 h subculture without drug, read-out: IC50 (µM) T. vaginalis
Experimental: as §3, §4

[6] = test system: Entamoeba histolytica strain HM1-IMSS; assay: as above; assay type: cell-based; conditions: for IC50: Entamoeba histolytica, trophozoites, 48 h with compound then 48 h subculture without drug, read-out: IC50 (µM) E. histolytica
Experimental: as §3, §4

[7] = molecular target: T1, human recombinant cyclooxygenase-2 (Homo sapiens, UniProt P35354); assay: COX inhibitor screening assay (Cayman kit); assay type: biochemical; conditions: tested at 10 µM
T1 construct: purchased Cayman Chemical 560131
T1 sequence (P35354 18-604): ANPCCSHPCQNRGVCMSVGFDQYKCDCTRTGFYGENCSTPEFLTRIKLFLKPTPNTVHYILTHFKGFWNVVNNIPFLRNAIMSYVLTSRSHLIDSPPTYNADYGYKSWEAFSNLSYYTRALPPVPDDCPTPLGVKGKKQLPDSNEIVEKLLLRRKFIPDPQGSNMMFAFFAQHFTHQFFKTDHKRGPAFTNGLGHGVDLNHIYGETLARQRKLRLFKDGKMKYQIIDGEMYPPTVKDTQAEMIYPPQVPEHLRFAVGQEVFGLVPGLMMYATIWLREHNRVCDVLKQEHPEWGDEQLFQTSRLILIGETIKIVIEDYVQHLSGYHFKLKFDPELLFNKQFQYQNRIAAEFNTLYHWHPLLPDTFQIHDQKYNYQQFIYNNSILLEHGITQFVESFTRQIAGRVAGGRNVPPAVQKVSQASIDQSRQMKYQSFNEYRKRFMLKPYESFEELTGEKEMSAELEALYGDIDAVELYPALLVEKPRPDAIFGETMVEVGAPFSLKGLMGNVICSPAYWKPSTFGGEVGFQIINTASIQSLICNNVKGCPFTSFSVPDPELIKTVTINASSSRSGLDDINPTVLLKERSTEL
Experimental: Additionally, molecular docking studies using AutoDock Vina software (TSRI, La Jolla, CA, USA) were performed to aid in the interpretation of the experimental results. […] Nevertheless, these compounds represent an interesting starting point towards the design of new antiparasitic compounds with an additional COX-2 inhibitory property.
Assays were carried out by duplicate following the instructions provided by the manufacturer.

C. albicans = assay: Minimum inhibitory concentration (antimycotic effect); assay type: cell-based; conditions: Candida albicans
C. glabrata = assay: as above; assay type: cell-based, Candida glabrata; conditions: Nakaseomyces glabratus
[8] = read-out: % Viability (10 µM) HaCaT Cells
[9] = read-out: % Viability (10 µM) HeLa Cells
[10] = 16 relative to 7, 20 compared to 13
[11] = positive control, ketoconazole 50 µg

| Structure (SMILES) | melting point [°C] | Inhibition (positive / none) E. coli 933 [1] | Inhibition (positive / none) C. albicans (Candida albicans; 5 mg per disc, 37 °C, 24 h) | Inhibition (positive / none) S. Typhi [2] | Inhibition (positive / none) C. glabrata (Candida glabrata; 5 mg per disc, 37 °C, 24 h) | viability at 48 h, 10 µM (Cytotoxicity MTT assay; [8]) [%] | viability at 48 h, 10 µM (Cytotoxicity MTT assay; [9]) [%] | Inhibition (positive / none) E. coli 042 [3] | IC50 [4] [µM] | IC50 [5] [µM] | IC50 [6] [µM] | zone of inhibition at 5000 µg/disc (Candida albicans) [mm] | MIC (C. albicans) [mM] | zone of inhibition at 5000 µg/disc (Candida glabrata) [mm] | MIC (C. glabrata) [mM] | inhibition at 10 µM [7] [%] | also measured |
| --- | --- | --- | --- | --- | --- | --- | --- | --- | --- | --- | --- | --- | --- | --- | --- | --- | --- |
| c1ccc(-c2c3ccccc3nn2-c2ccccc2)cc1 [Compound 16, 2,3-Diphenyl-2H-indazole] | 107.4 to 107.9 | - | - | - | - | 95 ± 2.44 | 93 ± 4.57 | - | 0.0518 ± 0.0052 | 0.0573 ± 0.0026 | 0.303 ± 0.0105 |  |  |  |  |  | IC50 (HaCaT cells): 93.7 ± 17.3 µM; IC50 (HeLa cells): 125 ± 29.6 µM; improvement in potency against G. intestinalis relative to the analog [4, 10]: two-fold; improvement in potency against T. vaginalis relative to the analog [5, 10]: two-fold; % of Inhibition of COX-2 [7]: Inactive |
| COC(=O)c1ccc(-n2nc3ccccc3c2-c2ccccc2)cc1 [Compound 18, Methyl 4-(3-phenyl-2H-indazol-2-yl) benzoate] | 152.4 to 154.9 | - | + | - | + | 96.2 ± 4.14 | 94.1 ± 3.31 | - | 0.0959 ± 0.0022 | 0.102 ± 0.0151 | 0.0502 ± 0.0022 | 10 | 3.81 (≈ 1250 µg/mL) | 3 | 15.2 (≈ 5000 µg/mL) | 50 ± 9.49 | times more active than metronidazole against G. intestinalis ([4]; ratio of IC50 values): 12.8 times |
| COC(=O)c1ccc(-c2c3ccccc3nn2-c2ccccc2)cc1 [Compound 23, Methyl 4-(2-phenyl-2H-indazol-3-yl) benzoate] | 164.5 to 166.3 | - | + | - | + | 97.8 ± 5.19 | 93.7 ± 7.48 | - | 0.119 ± 0.0086 | 0.143 ± 0.0043 | 0.0731 ± 0.0086 | 13 | 3.81 (≈ 1250 µg/mL) | 4 | 15.2 (≈ 5000 µg/mL) | 36.4 ± 1.7 |  |
| CS(=O)(=O)c1ccc(-c2c3ccccc3nn2-c2ccccc2)cc1 [Compound 26, 3-(4-(Methylsulfonyl)phenyl)-2-phenyl-2H-indazole] | 206.9 to 208.8 | - | - | - | - |  |  | - | 0.106 ± 0.0081 | 0.184 ± 0.0162 | 0.0459 ± 0.0081 |  |  |  |  | 41.2 ± 5.93 | improvement in potency against E. histolytica relative to the analog ([6]; 17 compared with 8, 20 compared to 13, 26 compared to 21): four-fold |
| CC(=O)N1CCN(c2ccc(OCC3COC(Cn4ccnc4)(c4ccc(Cl)cc4Cl)O3)cc2)CC1 (stereo not shown) [Ketoconazole, reference compound] |  |  |  |  |  |  |  |  |  |  |  |  | 0.045 (≈ 23.9 µg/mL) |  | 0.079 (≈ 42 µg/mL) |  | Inhibition (positive / none) C. albicans (Candida albicans; [11]): +; Inhibition (positive / none) C. glabrata (Candida glabrata; [11]): + |

— paper PMC6150295, “Synthesis and Biological Evaluation of 2H-Indazole Derivatives: Towards Antimicrobial and Anti-Inflammatory Dual Agents” (Molecules : A Journal of Synthetic Chemistry and Natural …, 2017)
